Measurements: US20130012443A1, “METHODS OF TREATMENT OF CENTRAL NERVOUS SYSTEM HEMORRHAGE USING PROTOPORPHYRIN IX-FE COMPOUNDS” (priority 2011, published 2013)
Entries after “also recorded” stand apart in the source; their conditions may differ.

Experiments:
heme oxygenase-1 (HO-1) = experiment: HO-1 expression in mouse brain by immunoblotting; format: in vivo; conditions: 26 mg/kg i.p. for 1 or 2 days, v. saline; for HO-1 expression in cortex (CTX) / HO-1 expression in striatum (STR): 24 hours after last dose, FIG. 4
Method: Mice received 26 mg/kg hemin i.p for 1 or 2 days, or an equal volume of saline. Striatal HO-1 expression was assessed 24 hours after the last hemin dose. Actin levels provide a gel-loading control. *P<0.05 v. expression in saline-treated controls, n=4/conditon.
Mice received 26 mg/kg hemin or heme arginate i.p for 1 or 2 days, or an equal volume of saline. HO-1 expression was assessed 24 hours after last dose. Actin serves as a control.
The response elicited by protoporphyrin IX-Fe compounds was investigated by administering 26 mg/kg hemin, or an equal volume of saline for 1 or 2 days via intraperitoneal injection. Expression of heme oxygenase-1 (HO-1) in striatal cells was assessed 24 hours after the last hemin dose. Four mice were used for each experimental group. Actin was used as a gel-loading control. HO-1 expression was quantified by immunoblotting as previously described (Neuropharmacology 2011 60:423-431); band density was analyzed using Kodak 1D software (Kodak, Rochester, N.Y.) (FIG. 3).
The effect of protoporphyrin IX-Fe compounds on HO-1 expression in nervous tissue was further investigated using heme arginate and examining the response in the cortex in addition to the striatum. Mice received 26 mg/kg hemin or heme arginate for 1 or 2 days, or an equal volume of saline. All treatments were administered intraperitoneally. HO-1 expression was quantified by immunoblotting as previously described (Neuropharmacology 2011 60:423-431).

[1] = test system: mouse model of intracerebral hemorrhage (ICH); experiment: Evan's blue leakage (blood-brain barrier disruption) after ICH induced by striatal autologous blood injection; format: in vivo, mice
Method: Mice were treated with 26 mg/kg hemin i.p. 1 hour later, as a one-time dose, or repeated in 24 hours; controls received vehicle i.p. only. Evan's blue leakage into the striatal parenchyma, a marker of blood-brain barrier disruption, was quantified at 3 days. […] Sham mice received anesthesia and needle trauma only. *P<0.05, **P<0.01, hemin treated v. vehicle-treated controls.
The effect of protoporphyrin IX-Fe compounds on subsequent exposure of nervous tissue to toxic doses of hemin was investigated. A mouse model of intracerebral hemorrhage (ICH) was used. ICH was induced in mice (6-7/condition, 9-10 weeks old) by injecting 25 μl autologous blood (FIG. 1A) into the right striatum. One hour after hemorrhage induction, mice were treated with (a) hemin at 26 mg/kg as a one-time dose, (b) hemin at 26 mg/kg at 1 hour after induction and then repeated at 25 hours after induction, or (c) sterile saline solution only. […] Mice were then treated with vehicle or hemin 1 hour later, with repeated dose 24 hours later. All treatments were administered via intraperitoneal injection. Three days after hemorrhage induction, brains were harvested after Evans blue injection, and slices were examined for Evan's blue fluorescence. […] Evan's blue leakage into the striatal parenchyma was quantified as a marker of blood-brain barrier disruption (FIGS. 1A-1B).

[2] = bound to albumin; cited from earlier work
HO-1 = conditions: low doses; cited from earlier work
[3] = test system: mouse model of intracerebral hemorrhage (ICH); experiment: Evan's blue leakage (blood-brain barrier disruption) after ICH induced by collagenase injection; format: in vivo, mice; conditions: 26 mg/kg 1 or 3 hours after collagenase and again 24 h later, v. vehicle
striatal cells = experiment: Striatal cell viability by MTT assay after ICH; format: in vivo, mice; conditions: v. vehicle
Method: Intracerebral hemorrhage was modeled in 2-3 month old mice (5-6/condition) by striatal injection of autologous blood (25 μl) or collagenase (0.014 units), followed 1 or 3 hours later by 4 mg/kg hemin i.p. (repeated 24 h later) or vehicle. Five days after ICH, striatal cell viability was quantified by MTT assay. *P<0.05, **P<0.01, hemin treated v. vehicle-treated controls.
Whether protoporphyrin IX-Fe compounds could reduce hemorrhage-induced cell death in nervous tissues was investigated using the same mouse model of ICH. Intracerebral hemorrhage was modeled in 2-3 month old mice (5-6/condition) by striatal injection of autologous blood (25 μl) or collagenase (0.014 units), followed 1 or 3 hours later by 4 mg/kg hemin i.p. (repeated 24 h later) or vehicle. Five days after ICH, striatal cell viability was quantified by MTT assay (Chen et al., J Neurosurg 2011 114:1159-67) after striatal cell dissociation (FIG. 2). ICH was also modeled by striatal injection of […] autologous blood, followed by hemin (26 mg/kg) or vehicle treatment at 3 and 27 hours after ICH.

| HO-1 expression in cortex (CTX) (heme oxygenase-1 (HO-1)) | HO-1 expression in striatum (STR) (heme oxygenase-1 (HO-1)) | Substance | Striatal HO-1 expression (heme oxygenase-1 (HO-1); 24 hours after the last dose, FIG. 3) | Evan's blue leakage into the striatal parenchyma, a marker of blood-brain barrier disruption ([1]; striatal autologous blood injection, 26 mg/kg i.p. 1 hour later, one-time dose or repeated in 24 hours, quantified at 3 days, v. vehicle, 26 mg/kg) | Evan's blue fluorescence in brain slices ([1]; three days after hemorrhage induction, DsRed filter, data not shown) | blood vessel inflammation and damage (phlebitis) [2] | stability [2] | HO-1 expression in cultured cells (HO-1) | Evan's blue leakage into the striatal parenchyma, a marker of blood-brain barrier disruption [3] | striatal cell viability (MTT assay) (striatal cells; autologous blood (25 μl) or collagenase (0.014 units), 4 mg/kg i.p. 1 or 3 hours later, repeated 24 h later, five days after ICH, 4 mg/kg) | MTT staining intensity / tissue viability (striatal cells; autologous blood, 26 mg/kg at 3 and 27 hours after ICH, data not shown) |
| --- | --- | --- | --- | --- | --- | --- | --- | --- | --- | --- | --- |
| increases HO-1 expression | increases HO-1 expression | chloride salt of protoporphyrin IX-Fe^3+ [hemin] | increased expression of HO-1; also recorded: increases expression of the protective enzyme heme oxygenase-1 (HO-1) | attenuated blood-brain barrier disruption following simulated hemorrhage in a dose-dependent manner; also recorded: decreases blood-brain barrier disruption | Reduced fluorescence | less blood vessel inflammation and damage (phlebitis) | more stable | could induce HO-1 expression | decreases blood-brain barrier disruption | increased striatal cell viability; also recorded: increases peri-hematomal cell viability | increased tissue viability |
| increases HO-1 expression | increases HO-1 expression | heme arginate |  |  |  |  |  |  |  |  |  |
